# Patent publication US7482307B2, “Herbicide composition” (Sumitomo Chemical Company, Limited, priority 2001, dated 2009)
# Experiments:
# soybean = assay: Test Example 1: phytotoxicity to soybean sown immediately after treatment; type: in vivo; details: evaluated after 14 days
# Procedure: (§1) Evaluation of phytotoxicity against a crop was shown by “no” when almost no phytotoxicity was observed, “low” when a low level phytotoxicity was observed, “medium” when a medium level phytotoxicity was observed and “high” when a high level phytotoxicity was observed.
# (§2) A plastic pot of 11 cm in diameter and 8 cm in depth was filled with field soil. A tuber of yellow nutsedge (Cyperus esculentus) was planted and grown in a greenhouse for 21 days.
# (§3) An emulsion of Compound A-1 was prepared by sufficiently mixing 5 parts of Compound A-1, 6 parts of Sorpol 3005× (surfactant, produced by Toho Chemical) and 89 parts of xylene.
# Each of • single use of an emulsion of Compound A-1, • single use of an formulation of Imazethapyr (commercial name: Pursuit, produced by American Cyanamid, containing 24% of imazethapyr), • single use of an formulation of Imazamox (commercial name: Raptur, produced by American Cyanamid, containing 12.1% of imazamox), • a mixed composition of an emulsion of Compound A-1 and an formulation of Imazethapyr, and • a mixed composition of an emulsion of Compound A-1 and an formulation of Imazamox, were diluted with water containing 1% Agri-dex (produced by Helena). […]
# (§4) After the treatment, they were raised in a greenhouse for 25 days and the effect against weeds was evaluated. In addition, after 14 days of the treatment, the phytotoxicity to soybean was evaluated.
# [1] = test system: yellow nutsedge (Cyperus esculentus); assay: Test Example 1: foliar spray herbicide effect on yellow nutsedge in greenhouse pots; type: in vivo; details: evaluated 25 days after treatment, level 0-10
# Procedure: as §1, §2, §3
# Each of • single use of an emulsion of Compound A-1, • single use of an formulation of Imazethapyr (commercial name: Pursuit, produced by American Cyanamid, containing 24% of imazethapyr), • single use of an formulation of Imazamox (commercial name: Raptur, produced by American Cyanamid, containing 12.1% of imazamox), • a mixed composition of an emulsion of Compound A-1 and an formulation of Imazethapyr, and • a mixed composition of an emulsion of Compound A-1 and an formulation of Imazamox, were diluted with water containing 1% Agri-dex (produced by Helena). Respective dilutions were uniformly sprayed from upper side onto foliages of yellow nutsedge grown as described above with a small sprayer such that the amounts of the active ingredients were the amounts shown in Table 4. Immediately after the treatment with the test compounds, seeds of soybean were sown.
# as §4
SMILES,Phytotoxicity soybean (soybean; 10 g/ha active ingredient),Phytotoxicity soybean (soybean; 40 g/ha active ingredient),Herbicide Effect yellow nutsedge ([1]; 10 g/ha active ingredient),Herbicide Effect yellow nutsedge ([1]; 40 g/ha active ingredient),Herbicide Effect yellow nutsedge ([1]; 20 g/ha active ingredient),Herbicide Effect yellow nutsedge ([1]; 80 g/ha active ingredient)
"COCc1cnc(C2=NC(C)(C(C)C)C(=O)N2)c(C(=O)O)c1 (stereo not drawn) [Imazamox, 2-(4-isopropyl-4-methyl-5-oxo-2-imidazolin-2-yl)-5-(methoxymethyl)nicotinic acid]",no,no,1,2,,
"CCc1cnc(C2=NC(C)(C(C)C)C(=O)N2)c(C(=O)O)c1 (stereo not drawn) [Imazethapyr, 5-ethyl-2-(4-isopropyl-4-methyl-5-oxo-2-imidazolin-2-yl)nicotinic acid]",,,,,1,2
